Results: patent US12390440B2, “Immunomodulating trifluoromethyl-aminal azalides” (Zoetis Services LLC, priority 2020, dated 2025)
Converted amounts (≈) assume the structure as drawn.

Columns and labels:
TNF-α = experiment: Bovine whole blood assay, LPS-induced TNF-α; format: cell-based; conditions: Bos taurus, fresh whole bovine blood, LPS 1 μg/mL
Protocol: (§1) (protected from light) for 30 minutes.

IL-1β = experiment: Bovine whole blood assay, IL-1β; format: cell-based; conditions: overstimulation of IL-1β, perceived cellular toxicity concentration;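 also: compound concentration at which rising IL-1β release signals cytotoxicity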
Protocol: as §1

IL-6 = experiment: Bovine whole blood assay, IL-6; format: cell-based; conditions: Bos taurus, fresh whole bovine blood, LPS 1 μg/mL
Protocol: as §1

P. multocida 46572 = experiment: In vivo mouse lung infection challenge model (murine efficacy); conditions: 20 mg/kg subcutaneous; harmonized survival relative to vehicle and M9 controls; study ended Day 10
Protocol: The challenge organism was P. multocida 46572. Target challenge concentration was 5×10^2 CFU/mouse. Isolated colonies from overnight growth (37° C. with 5% CO2) on trypticase soy agar (TSA II) blood plates were transferred to room temperature Brain Heart Infusion Broth (BHIB). The broth culture was incubated 3.5-4 hours to approximately mid-log phase of growth, as measured by forward light scatter at 600 nm (OD600, 0.200). The culture was centrifuged to collect the bacterial pellet. The pellet was re-suspended in BHIB and adjusted to provide an approximate concentration of 2.7 log^10 colony forming units (CFU) in 0.04 mL at the highest concentration. The challenge inoculum concentration was confirmed by serial dilutions of the inoculum for CFU enumeration. On Day −5, CD-1 female mice were received. Mice were given standard rodent diet and water ad libitum. On Day 0, bacterial inoculum (0.04 mL) was administered to each mouse (n=36) intranasally. Compounds of the invention were dosed at 20 mg/kg (0.1 mL) in a buffered (˜pH 5.4) propylene glycol, monothioglycerol and water solution by subcutaneous injection. Animals were observed from Days 1-10. The study was terminated on Day 10. In addition, some treatment groups were sampled at 6, 24, and 48 hours post bacterial challenge for RNA sequence analysis of lung tissue.
The murine efficacy model (P. multocida challenge) was optimized, and the treatment group size was powered to be able to observe statistically significant improvement of survival to expected ranges for immunomodulatory compounds. The experimental design was a randomized complete block design. Mice were individually identified and treatment groups comingled within a cage, with every treatment group equally represented across cages. Mortality was the primary variable. Mortality data was analyzed using a generalized mixed model with fixed effect of treatment and random effect of block. Survival time was also analyzed using the SAS PHREG (survival analysis) procedure to examine whether there were significant differences between treatment groups and the control group. Numerous compounds of the invention and M9 (positive control) were tested in this model at a dose of 20 mg/kg (Table 3). Typical percent survival for no treatment control is in the range of 0-20% based on study to study variation in challenge inoculum and rate of infection. […] Mouse survival for M9 was about 90-100%, further supporting its residual antibacterial properties against the bacterial strain. Harmonized survival accounts for % survival relative to vehicle (“−” control) and M9 (“+” control)) survival data (Table 3).

E. coli = experiment: MIC, E. coli; conditions: Escherichia coli
S. aureus = experiment: MIC, S. aureus; conditions: Staphylococcus aureus
P. multocida [1] = experiment: MIC, P. multocida; conditions: for MIC: Pasteurella multocida
M. haemolytica = experiment: MIC, M. haemolytica; conditions: for MIC: Mannheimia haemolytica
P. multocida [2] = experiment: Murine P. multocida intranasal challenge study, survival; format: in vivo; conditions: 5×10^3 CFU/mouse
Protocol: In one murine P. multocida intranasal challenge study, mice were administered tulathromycin (16 mg/kg; T02), M9 (32 mg/kg; T03), or ceftiofur (9 mg/kg; T04) by subcutaneous injection 18 hours after bacterial challenge (5×10^3 CFU/mouse) for lung tissue RNA sequence analysis. Survival at Day 7 was about 80%, 50%, and 90% for T02, T03, and T04, respectively, compared to placebo at 0%. Differential gene expression from total lung tissue RNA sequence analysis indicated at least 226 unique genes were up or down regulated (with significance) for T03. Output from ingenuity pathway analysis of these unique genes predicted major upstream regulators of the involved pathways. Data was analyzed based on the number of genes being modulated in the same direction that were associated with a given upstream regulator. An activation z-score of 2 or greater is considered significant and the direction change is indicated by + (activated) or − (inhibited). The top 5 pathways included: IL-9 signaling, glucocorticoid receptor signaling, prolactin signaling, JAK STAT signaling, and IL-17 signaling. The top 6 upstream regulators (activation z-score) included: lipopolysaccharide (−6.725), TNF (−4.669), IFNγ (−5.759), IL-1ß (−5.947), STAT1 (−2.787), and poly rI:rC-RNA (−5.289). Even though this study was run in the murine model, the top upstream regulators identified as being modulated by M9 include an almost ubiquitous overlap with the pathways identified in the natural disease study as being key mediators in BRD, and therefore is modulating highly relevant pathways in BRD pathobiology.

H. somni = experiment: MIC, H. somni; conditions: H. somni strains
[3] = system: M. haemolytica (strain: OSU-012103-BHI); experiment: Bovine M. haemolytica intratracheal lung challenge model; conditions: bovine M. haemolytica challenge

In the case of CC[C@H]1OC(=O)[C@H](C)[C@@H](O[C@H]2C[C@@](C)(OC)[C@](O)(CNCCO)[C@H](C)O2)[C@H](C)[C@@H](O[C@@H]2O[C@H](C)C[C@H]3[C@H]2OC(C(F)(F)F)N3C)[C@](C)(O)C[C@@H](C)CN[C@H](C)[C@@H](O)[C@]1(C)O (stereo partly drawn) [Example A-3, (2R,3S,4R,5R,8R,10R,11R,12S,13S,14R)-11-(((3aR,4S,6R,7aS)-1,6-dimethyl-2-(trifluoromethyl)hexahydro-2H-pyrano[4,3-d]oxazol-4-yl)oxy)-2-ethyl-3,4,10-trihydroxy-13-(((2R,4R,5S,6S)-5-hydroxy-5-(((2-hydroxyethyl)amino)methyl)-4-methoxy-4,6-dimethyltetrahydro-2H-pyran-2-yl)oxy)-3,5,8,10,12,14-hexamethyl-1-oxa-6-azacyclopentadecan-15-one], the IC50 (TNF-α) is reported as 20 µM, the “IL-1β OS of LPS” value (IL-1β) is reported as 32 µM and the IC50 (IL-6) is reported as 40 µM. For the same molecule, the “% Survival” value (P. multocida 46572) was 11%, the MIC (E. coli; E. coli 25922) was greater than 64 µg/mL and the MIC (E. coli; E. coli W3110) was greater than 64 µg/mL. The MIC (S. aureus) was greater than 64 µg/mL, the MIC (P. multocida [1]; P. multocida 43137) was greater than 64 µg/mL and the MIC (P. multocida [1]; P. multocida 46572, murine efficacy challenge strain) was greater than 64 µg/mL. For the same molecule, the MIC (M. haemolytica; M. haemolytica 12726) was greater than 64 µg/mL, the MIC (M. haemolytica; M. haemolytica 33396) was greater than 64 µg/mL and the MIC (M. haemolytica; M. haemolytica 46571, bovine efficacy challenge strain) was greater than 64 µg/mL.
In the case of CO/N=C(\C(=O)N[C@@H]1C(=O)N2C(C(=O)O)=C(CSC(=O)c3ccco3)CS[C@H]12)c1csc(N)n1 [ceftiofur], the “Survival at Day 7” value (P. multocida [2]; 9 mg/kg (T04) subcutaneous 18 hours after challenge) is reported as roughly 90%.
With CCN1CCN(c2cc3c(cc2F)c(=O)c(C(=O)O)cn3C2CC2)CC1 [enrofloxacin] the “MIC values, range over strains” value (H. somni) was less than 0.06 to 1 µg/mL.
CS(=O)(=O)c1ccc([C@@H](O)[C@@H](CF)NC(=O)C(Cl)Cl)cc1 [florfenicol] was tested, and the “MIC values, range over strains” value (H. somni) was 0.12 to 2 µg/mL.
In the case of CCCN1C[C@H](C)[C@@H](O)[C@](C)(O)[C@@H](CC)OC(=O)[C@H](C)[C@@H](O[C@H]2C[C@@](C)(OC)[C@@H](O)[C@H](C)O2)[C@H](C)[C@@H](O[C@@H]2O[C@H](C)C[C@H](N(C)C)[C@H]2O)[C@](C)(O)C[C@H]1C [gamithromycin, reference compound], the “MIC values, range over strains” value (H. somni) is reported as 0.25 to 8 µg/mL, the “MIC values, range over strains” value (P. multocida [1]; the same P. multocida strains of the screening panel) is reported as 1 to 2 µg/mL and the “MIC values, range over strains” value (M. haemolytica; the same M. haemolytica strains of the screening panel) is reported as 0.5 to 1 µg/mL.
With CCCNC[C@]1(O)[C@H](C)O[C@@H](O[C@H]2[C@H](C)[C@@H](O[C@@H]3O[C@H](C)C[C@H](N(C)C)[C@H]3O)[C@](C)(O)C[C@@H](C)CN[C@H](C)[C@@H](O)[C@](C)(O)[C@@H](CC)OC(=O)[C@@H]2C)C[C@@]1(C)OC [tulathromycin, (2R,3S,4R,5R,8R,10R,11R,12S,13S,14R)-11-(((2S,3R,4S,6R)-4-(dimethylamino)-3-hydroxy-6-methyltetrahydro-2H-pyran-2-yl)oxy)-2-ethyl-3,4,10-trihydroxy-13-(((2R,4R,5S,6S)-5-hydroxy-4-methoxy-4,6-dimethyl-5-((propylamino)methyl)tetrahydro-2H-pyran-2-yl)oxy)-3,5,8,10,12,14-hexamethyl-1-oxa-6-azacyclopentadecan-15-one] the “Survival at Day 7” value (P. multocida [2]; 16 mg/kg (T02) subcutaneous 18 hours after challenge) was “about 80%”, the MIC (S. aureus) was 8 µg/mL (≈ 9.92 µM) and the IL-6 levels [3] was “significantly reduced”.
